Data reported in patent US11655260B2, “Heterocyclic compounds as arginase inhibitors” (Guangdong Newopp Biopharmaceuticals Co., Ltd., priority 2017, dated 2023).
Structures can show the parent of a compound that is named as a salt.

Target: T1, recombinant human arginase 1 (Homo sapiens, UniProt P05089)
T1 sequence (P05089 1-322): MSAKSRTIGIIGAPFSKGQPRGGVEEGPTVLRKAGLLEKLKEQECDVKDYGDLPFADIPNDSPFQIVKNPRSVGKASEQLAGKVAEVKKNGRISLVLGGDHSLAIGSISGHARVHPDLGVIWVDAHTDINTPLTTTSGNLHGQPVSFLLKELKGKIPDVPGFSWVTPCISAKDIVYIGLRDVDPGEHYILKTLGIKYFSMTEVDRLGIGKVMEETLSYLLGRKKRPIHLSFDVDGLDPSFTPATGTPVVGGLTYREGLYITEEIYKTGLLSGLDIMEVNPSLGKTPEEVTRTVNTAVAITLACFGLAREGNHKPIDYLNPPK
Experiment: Arginase inhibitory activity test (urea detection), arginase 1
Format: biochemical
Details: recombinant human arginase 1, L-arginine substrate, 37° C. for 120 min, urea measurement; read-out: Arg 1 enzymatic potency
Excerpt: Arginase Inhibitory Activity Test
Urea was used as the standard.

Row | IC50 | SMILES
1 | 1 to 101 µM | CNS(=O)(=O)N1C[C@H](CCCB(O)O)[C@](N)(C(=O)O)C1 (racemic) [Example 2, (rac)trans-3-amino-4-(3-boronopropyl)-1-(N-methylsulfamoyl)pyrrolidine-3-carboxylic acid, (1:1) 2,2,2-trifluoroacetic Acid Salt]
2 | 1 to 101 µM | NC(=O)CNS(=O)(=O)N1C[C@H](CCCB(O)O)[C@](N)(C(=O)O)C1 (racemic) [Example 7, (rac)trans-3-amino-1-(N-(2-amino-2-oxoethyl)sulfamoyl)-4-(3-boronopropyl)pyrrolidine-3-carboxylic Acid, (1:1) 2,2,2-trifluoroacetic Acid Salt]
3 | 1 to 101 µM | CC(C)C(NS(=O)(=O)N1CC(CCCB(O)O)C(N)(C(=O)O)C1)C(=O)O (racemic) [Example 11, (rac)trans-3-amino-4-(3-boronopropyl)-1-(N—((S)-1-carboxy-2-methylpropyl)sulfamoyl)pyrrolidine-3-carboxylic Acid (Diastereomer), (1:1) 2,2,2-trifluoroacetic Acid Salt]
4 | 0.1 to 1 µM | CCOC(=O)[C@]1(N)CN(S(=O)(=O)NCCN)C[C@@H]1CCCB(O)O (racemic) [Example 14, (rac)(3-(trans-4-amino-1-(N-(2-aminoethyl)sulfamoyl)-4-(ethoxycarbonyl)pyrrolidin-3-yl)propyl)boronic Acid, (1:2) 2,2,2-trifluoroacetic Acid Salt]
5 | 0.1 to 1 µM | C[C@H](N)CNS(=O)(=O)N1C[C@H](CCCB(O)O)[C@](N)(C(=O)O)C1 (racemic) [Example 18, (rac)trans-3-amino-1-(N—((S)-2-aminopropyl)sulfamoyl)-4-(3-boronopropyl)pyrrolidine-3-carboxylic Acid (Diastereomers), 2,2,2-trifluoroacetic Acid Salt (1:2)]
6 | > 101 µM | N[C@@H]1CCCCC1NS(=O)(=O)N1C[C@H](CCCB(O)O)[C@](N)(C(=O)O)C1 (mixture of isomers) [Example 20, (rac)trans-3-amino-1-(N-((rac)cis-2-aminocyclohexyl)sulfamoyl)-4-(3-boronopropyl)pyrrolidine-3-carboxylic Acid (Diastereomers), 2,2,2-trifluoroacetic Acid Salt (1:2)]
